Experiments:
Human LBAT = target: T1, Human LBAT (Homo sapiens, UniProt Q14973); experiment: LBAT assay, 3H-taurocholic acid uptake in human LBAT-overexpressing cells; assay type: cell-based; conditions: read-out: hLBAT IC50
T1 construct: expressed in transfected cells; kept under Geneticin selection
T1 sequence (Q14973 1-349): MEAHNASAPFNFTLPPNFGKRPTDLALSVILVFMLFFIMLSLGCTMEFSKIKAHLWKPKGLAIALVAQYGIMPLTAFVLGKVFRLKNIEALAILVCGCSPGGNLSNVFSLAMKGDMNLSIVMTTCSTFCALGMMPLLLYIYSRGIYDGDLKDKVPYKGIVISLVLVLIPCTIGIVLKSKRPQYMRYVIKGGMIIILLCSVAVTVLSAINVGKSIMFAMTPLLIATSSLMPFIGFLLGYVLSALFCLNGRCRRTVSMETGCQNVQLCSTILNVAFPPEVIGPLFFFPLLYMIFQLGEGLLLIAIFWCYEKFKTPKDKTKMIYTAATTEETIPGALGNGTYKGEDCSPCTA
Description: (§1) 20,000 cells (Human or Mouse LBAT-overexpressing cells) were seeded in 96-wells plate (Corning CLS3809) in 100 μL MEM-alpha medium (Gibco 12571-063) supplemented with 10% FBS (Gibco 10438026) containing Geneticin (Gibco 10131-027) (1 mg/mL) and incubated at 37° C. in 5% CO2 for 24 hours. After incubation, media was decanted from the wells and cells were washed two times with 300 μL of basal MEM-alpha medium (FBS-free). After decanting basal MEM-alpha medium each time, plates were tapped against paper towel to ensure maximum removal of residual media.
For human LBAT, incubation mix was prepared by adding test inhibitor dilutions (3-fold serial dilution in DMSO (Sigma D2650), 10 points) in MEM-alpha (without FBS) containing 0.3 μM 3H-taurocholic acid (ARC ART-1368) and 7.5 μM cold taurocholic acid (Sigma T4009) (maintaining 0.2% final DMSO concentration). For mouse LBAT, incubation mix was prepared by adding test inhibitor dilutions (3-fold serial dilution in DMSO, 10 points) in MEM-alpha (without FBS) containing 0.3 μM 3H-taurocholic acid and 25 μM cold taurocholic acid maintaining 0.2% final DMSO concentration).
50 μL of incubation mix containing test inhibitors was then added to the wells (in duplicate) and the plates were incubated for 20 minutes in a CO2 incubator at 37° C. After incubation, the reaction was stopped by keeping the plates on ice water mix for 2-3 minutes and then the incubation mix was aspirated completely from the wells. The wells were washed two times with 250 μL of chilled unlabelled 1 mM taurocholic acid dissolved in HEPES (Gibco 15630080)-buffered (10 mM) HBSS (Gibco 14175079) (pH 7.4). The plates were tapped against a paper towel after every wash to ensure maximum removal of blocking buffer.
100 μL of MicroScint-20 (PerkinElmer 6013621) was added to the wells and kept overnight at room temperature before reading the plates in TopCount NXT™ Microplate Scintillation and Luminescence Counter from PerkinElmer under 3H Test protocol (set at 120 seconds reading time per well, with normal plate orientation).
(§2) All test compounds were provided in powder form at room temperature. 10 mM DMSO stocks of the test compounds were prepared, aliquoted and stored at −20° C. From the 10 mM DMSO stock of the compounds, a 3-fold serial dilution in DMSO was prepared to get a total of 10 dilutions of the test compounds. 0.5 μL of this dilution in DMSO was added to 250 μL of FBS-free basal media containing 3H-taurocholic acid and cold taurocholic acid to prepare the incubation mixture.

Human IBAT = target: T2, Human IBAT (Homo sapiens, UniProt Q12908); experiment: IBAT assay, 3H-taurocholic acid uptake in human IBAT-overexpressing cells; assay type: cell-based; conditions: read-out: hIBAT IC50
T2 construct: expressed in transfected cells; kept under Puromycin selection
T2 sequence (Q12908 1-348): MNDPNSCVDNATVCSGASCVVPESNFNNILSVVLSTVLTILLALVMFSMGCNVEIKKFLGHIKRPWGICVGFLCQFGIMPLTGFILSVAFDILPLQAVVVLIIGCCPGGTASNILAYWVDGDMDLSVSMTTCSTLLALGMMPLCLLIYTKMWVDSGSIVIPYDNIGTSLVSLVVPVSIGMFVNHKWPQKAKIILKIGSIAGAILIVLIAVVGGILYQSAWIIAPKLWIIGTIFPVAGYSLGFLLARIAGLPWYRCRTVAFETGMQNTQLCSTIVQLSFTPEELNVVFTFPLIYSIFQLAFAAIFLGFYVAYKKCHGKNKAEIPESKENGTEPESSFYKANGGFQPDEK
Description: as §1, with “10,000” for “20,000”, “IBAT-overexpressing” for “LBAT-overexpressing”, “200” for “100”, “Puromycin” for “Geneticin”, “A1113803) (10 μg/mL)” for “10131-027) (1 mg/mL)”, “48” for “24”
Test inhibitor dilutions (highest test concentration being 10 μM, 3-fold serial dilution, 10 points) prepared in DMSO (Sigma D2650) were added in incubation mix (maintaining 0.2% final DMSO concentration) containing 0.25 μM 3H-taurocholic acid (ARC ART-1368) and 5 μM of cold taurocholic acid (Sigma T4009). 50 μL of incubation mix containing test inhibitors was then added to the wells (in duplicate) and the plates were incubated for 20 minutes in a CO2 incubator at 37° C. After incubation, the reaction was stopped by keeping the plates on ice water mix for 2-3 minutes and then the incubation mix was aspirated completely from the wells. The wells were washed two times with 250 μL of chilled unlabelled 1 mM taurocholic acid dissolved in HEPES (Gibco 15630080)-buffered (10 mM) HBSS (Gibco 14175079) (pH 7.4). The plates were tapped against a paper towel after every wash to ensure maximum removal of blocking buffer.
100 μL of MicroScint-20 (PerkinElmer 6013621) was added to the wells and kept overnight at room temperature before reading the plates in TopCount NXT™ Microplate Scintillation and Luminescence Counter from PerkinElmer under 3H Test protocol (set at 120 seconds reading time per well).
as §2

[1] = Bidirectional permeability assay (Caco-2 cells); assay type: in vitro ADME; conditions: human; for Papp A→B at 120 min, 10 µM: Caco-2, pH 7.4, absorptive direction A2B; for Papp B→A at 120 min, 10 µM: Caco-2, pH 7.4, secretory direction B2A
Description: HepaRG-Based Assay Protocol

[2] = Bioavailability study in rats; assay type: in vivo; conditions: male, Wistar, plasma; rat; 1 mg/kg intravenous, 10 mg/kg oral
Description: (§3) Male mice (C57BL/6 or CD1) or Wistar rats of 8-10 weeks old were used. For each test compound, two groups of 3 animals each were used. One group was administered a single intravenous dose of 1 mg/kg (vehicle 100% DMSO) through the tail vein and the other group was administered a single oral dose of 10 mg/kg through gavage needle. The group that was administered an oral dose was fasted overnight. Blood samples were collected after 0.083, 0.25, 0.5, 1, 2, 4, 6, 8 and 24 hours following intravenous administration, and after 0.25, 0.5, 1, 2, 4, 6, 8 and 24 hours following oral administration. Blood samples were taken from saphenous vein. 0.2% EDTA was used as the anticoagulant. The samples were analyzed by a discovery grade bioanalytical method developed for the estimation of test compound in plasma, using an LC-MS/MS system.

[3] = Bioavailability study in mice; assay type: in vivo; conditions: male, mouse, plasma, 1 mg/kg intravenous, 10 mg/kg oral
Description: as §3

urinary total bile acids = experiment: Urinary bile acid output in dogs; assay type: in vivo; conditions: male Beagle dogs, once daily for three days at 10 and 50 mg/kg
Description: Male Beagle dogs were used in the study. Animals were dosed with the compound of Example 2 once daily for three days at 10 and 50 mg/kg, respectively. Basal urine samples were collected before study start by cystocentesis. Urine samples were then collected at 2 h and 8 h post-dosing on Day 1 and Day 3. Urine bile acids and urine creatinine analyses were performed at a clinical chemistry lab.

| SMILES | IC50 (Human LBAT) | IC50 (Human IBAT) | Papp A→B at 120 min, 10 µM [1] | Papp B→A at 120 min, 10 µM [1] | bioavailability [2] | bioavailability ([3]; C57BL/6 mice) | bioavailability ([3]; CD1 mice) | urinary total bile acids increase versus baseline (urinary total bile acids) |
| --- | --- | --- | --- | --- | --- | --- | --- | --- |
| CCC[C@]1(C)CN(c2ccccc2)c2cc(SC)c(O/C=C(\F)C(=O)O)cc2S(=O)(=O)C1 (single isomer, unassigned) [Example 8] | 5.2 nM | 465 nM | 3.6 ×10⁻⁶ cm/s | 6.2 ×10⁻⁶ cm/s | – | – | – | – |
| CCCCC1(C)CN(c2ccccc2)c2cc(SC)c(O/C=C(\F)C(=O)O)cc2S(=O)(=O)C1 (centres unmarked) [Example 1, (Z)-3-((3-buty-3-methyl-7-(methylthio)-1,1-dioxido-5-phenyl-2,3,4,5-tetrahydro-1,5-benzothiazepin-8-yl)oxy)-2-fluoroacrylic acid] | 14.4 nM | 23.7 nM | – | – | – | – | – | – |
| CCCC1(C)CN(c2ccccc2)c2cc(SC)c(O/C=C(\F)C(=O)O)cc2S(=O)(=O)C1 (centres unmarked) [Example 7, (Z)-2-fluoro-3-((3-methyl-7-(methylthio)-1,1-dioxido-5-phenyl-3-propy-2,3,4,5-tetrahydro-1,5-benzothiazepin-8-yl)oxy)acrylic acid] | 23 nM | 435 nM | – | – | – | – | – | – |
| CCCC[C@]1(C)CN(c2ccccc2)c2cc(SC)c(O/C=C(\F)C(=O)O)cc2S(=O)(=O)C1 (single isomer, unassigned) [Example 2] | 17.4 nM | 22.7 nM | 3.6 ×10⁻⁶ cm/s | 6.6 ×10⁻⁶ cm/s | 34.5% | 15.7% | 32.1 to 55.7% | 5- to 10 fold |
| CCC1(C)CN(c2ccccc2)c2cc(SC)c(O/C=C(\F)C(=O)O)cc2S(=O)(=O)C1 (centres unmarked) [Example 10, (Z)-3-((3-ethyl-3-methyl-7-(methylthio)-1,1-dioxido-5-phenyl-2,3,4,5-tetrahydro-1,5-benzothiazepin-8-yl)oxy)-2-fluoroacrylic acid] | 83 nM | 906 nM | – | – | – | – | – | – |
| CCCC1(C)CN(c2ccccc2)c2cc(SC)c(O/C=C/C(=O)O)cc2S(=O)(=O)C1 (centres unmarked) [Example 4, (E)-3-((3-methyl-7-(methylthio)-1,1-dioxido-5-phenyl-3-propy-2,3,4,5-tetrahydro-1,5-benzothiazepin-8-yl)oxy)acrylic acid] | 66 nM | 564 nM | – | – | – | – | – | – |
| CCCC[C@@]1(C)CN(c2ccccc2)c2cc(SC)c(O/C=C(\F)C(=O)O)cc2S(=O)(=O)C1 (single isomer, unassigned) [Example 3] | 9.2 nM | 735 nM | 3.6 ×10⁻⁶ cm/s | 9.3 ×10⁻⁶ cm/s | – | – | – | – |
| CCC[C@]1(C)CN(c2ccccc2)c2cc(SC)c(O/C=C/C(=O)O)cc2S(=O)(=O)C1 (single isomer, unassigned) [Example 6] | 1050 nM | 678 nM | – | – | – | – | – | – |
| CCCC1(C)CN(c2ccccc2)c2cc(SC)c(OC=CC(=O)O)cc2S(=O)(=O)C1 (single isomer, unassigned) [Example 5] | 32 nM | – | – | – | – | – | – | – |
| CCC[C@@]1(C)CN(c2ccccc2)c2cc(SC)c(O/C=C(\F)C(=O)O)cc2S(=O)(=O)C1 (single isomer, unassigned) [Example 9] | 56 nM | 186 nM | – | – | – | – | – | – |

From patent publication US12060338B2, “Benzothia(di)azepine compounds and their use as bile acid modulators” (Albireo AB, priority 2019, dated 2024)
